Where two headings read alike, the source gives them in different places.
Key:
[1] = test system: Vascular smooth muscle cells (BO54); experiment: Scratch-migration assay; assay type: cell-based, baboon; parameters: key: −=no migration; +1=minimal; +2=mild; +3=moderate; +4=marked (maximum density; limit of cell contact inhibition) migration
Protocol: (§1) Scratch assays to determine the extent of smooth muscle cell migration inhibition by cytochalasin B were performed in accordance with the following protocol:
(§2) Vascular smooth muscle cells (BO54) were derived from explants of baboon aortic smooth muscle, as described in Example 10. The cells were grown in flat bottom, six well tissue culture plates, which hold about 5 ml of medium. The vascular smooth muscle cells were plated at 200,000 cells/well and placed at 37° C. in a humidified 5% CO2 incubator for 18 hours. The wells were then scratched with a sterile portion of a single edge razor blade that was held by clamp or pliers and was brought aseptically into contact with the bottom of the well at a 90° angle. The cells from a small area along the scratch were removed by a sterile cotton tipped applicator while the blade was in contact with the bottom of the well. After incubation, the presence of cells in the “scratched” area is indicative of cell migration across the scratch line.
(§3) Briefly, a stock solution of cytochalasin B (Sigma Chemical Co.) in dimethyl sulfoxide (DMSO) at 1 mg/ml was prepared. Test dilutions of cytochalasin B or control medium were added. Each experiment included two sets of plates:
(§4) A set: Test agent exposure for 1, 3, 6, 8 and 10 days only; and
(§5) B set: Test agent exposure for 1, 3, 6, 8 and 10 days, followed by a seven day recovery time with control medium.
(§6) Both sets of plates were fixed (10% formalin in PBS) and stained (0.02% crystal violet) at the end of the timed exposures. Test concentrations for cytochalasin B were 1, 0.1 and 0.01 μg/ml, and a negative medium control was included. Fresh medium and drug were supplied 3 times per week.
(§7) In this Table, “M” indicates Migration Grade, wherein −=no migration; +1=minimal; +2=mild; +3=moderate; and +4=marked (maximum density; limit of cell contact inhibition) migration of vascular smooth muscle cells into the cleared area adjacent to the scratch. In this Table, “T” denotes a morphological Toxicity Grade, wherein −=no toxicity; +1=minimal; +2=mild; +3=moderate; and +4=marked toxicity. The migration results are expressed as “Grade in the Cleared Area of the Well/Grade in an Undisturbed Region of the Well.” The toxicity values represent a grade for all cells in each well.

[2] = test system: Vascular smooth muscle cells (BO54); experiment: Scratch-migration assay; assay type: cell-based, baboon; parameters: key to Migration Grade in an Undisturbed Region of the Well / Migration Grade in the Cleared Area of the Well: −=no migration; +1=minimal; +2=mild; +3=moderate; +4=marked (maximum density; limit of cell contact inhibition) migration
Protocol: as §1, §2, §3, §4, §5, §6, §7

[3] = test system: Vascular smooth muscle (BO54) cells; assay type: cell-based, baboon
[4] = Tissue distribution of cytochalasin B after intravenous administration (TLC); assay type: in vivo, mice
Protocol: Cytochalasin B was also administered intravenously to mice at 3.5 mg/kg (in methanol or Tween 20/carboxymethyl cellulose). Mice were sacrificed at 2 minutes, 15 minutes, 30 minutes, 3 hours and 12 hours after cytochalasin B administration and tissue extracts analyzed for cytochalasin by TLC. The maximal recovery of cytochalasin B from tissue extracts was 32%.

[5] = test system: balloon traumatized rabbit carotid artery; assay type: in vivo
[6] = 7-day Recovery Post Exposure, Day 1, 1.0 μg/mL
[7] = 7-day Recovery Post Exposure, Day 6, 1.0 μg/mL
[8] = 7-day Recovery Post Exposure, Day 8, 1.0 μg/mL
[9] = 7-day Recovery Post Exposure, Day 10, 1.0 μg/mL
[10] = Continuous Exposure, Day 1, 1.0 μg/mL
[11] = Continuous Exposure, Day 3, 0.1 μg/mL
[12] = Continuous Exposure, Day 6, 0.1 μg/mL
[13] = Continuous Exposure, Day 8, 0.1 μg/mL
[14] = Continuous Exposure, Day 10, 0.1 μg/mL
[15] = 7-day Recovery Post Exposure, Day 1, 0.01 μg/mL
[16] = 7-day Recovery Post Exposure, Day 1, 0.1 μg/mL
[17] = 7-day Recovery Post Exposure, Day 3, 0.01 μg/mL
[18] = 7-day Recovery Post Exposure, Day 3, 0.1 μg/mL
[19] = 7-day Recovery Post Exposure, Day 6, 0.1 μg/mL
[20] = 7-day Recovery Post Exposure, Day 8, 0.01 μg/mL
[21] = 7-day Recovery Post Exposure, Day 8, 0.1 μg/mL
[22] = 7-day Recovery Post Exposure, Day 10, 0.01 μg/mL
[23] = 7-day Recovery Post Exposure, Day 10, 0.1 μg/mL
[24] = Continuous Exposure, Day 1, 0.01 μg/mL
[25] = Continuous Exposure, Day 1, 0.1 μg/mL
[26] = Continuous Exposure, Day 6, 0.01 μg/mL
[27] = Continuous Exposure, Day 8, 0.01 μg/mL
[28] = Continuous Exposure, Day 10, 0.01 μg/mL

C=C1[C@@H](C)[C@H]2[C@H](Cc3ccccc3)NC(=O)[C@]23OC(=O)/C=C/[C@H](O)CCC[C@@H](C)C/C=C/[C@H]3[C@@H]1O [cytochalasin B]
Toxicity Grade [1, 6]: +2
Toxicity Grade ([1]; 7-day Recovery Post Exposure, Day 3, 1.0 μg/mL): +1
Toxicity Grade [1, 7]: +3
Toxicity Grade [1, 8]: +3
Toxicity Grade [1, 9]: +3
Toxicity Grade [1, 10]: +3
Toxicity Grade [1, 11]: +1
Toxicity Grade ([1]; Continuous Exposure, Day 3, 1.0 μg/mL): +3
Toxicity Grade [1, 12]: +1
Toxicity Grade [1, 13]: +1
Toxicity Grade [1, 14]: +1
morphological toxicity grade ([2]; 0.1 μg/ml, continuous exposure): −3 to +1
Migration Grade in an Undisturbed Region of the Well [2, 15]: +4
Migration Grade in the Cleared Area of the Well [2, 15]: +3
Migration Grade in an Undisturbed Region of the Well [2, 16]: +4
Migration Grade in the Cleared Area of the Well [2, 16]: +3
Migration Grade in an Undisturbed Region of the Well [2, 6]: +3
Migration Grade in the Cleared Area of the Well [2, 6]: +2
Migration Grade in an Undisturbed Region of the Well [2, 17]: +4
Migration Grade in the Cleared Area of the Well [2, 17]: +3
Migration Grade in an Undisturbed Region of the Well [2, 18]: +4
Migration Grade in the Cleared Area of the Well [2, 18]: +3
Migration Grade in an Undisturbed Region of the Well ([2]; 7-day Recovery Post Exposure, Day 6, 0.01 μg/mL): +4/+4
Migration Grade in an Undisturbed Region of the Well [2, 19]: +4
Migration Grade in the Cleared Area of the Well [2, 19]: +3
Migration Grade in an Undisturbed Region of the Well [2, 7]: +3
Migration Grade in the Cleared Area of the Well [2, 7]: +2
Migration Grade in an Undisturbed Region of the Well [2, 20]: +4/+4
Migration Grade in the Cleared Area of the Well [2, 20]: +4/+4
Migration Grade in an Undisturbed Region of the Well [2, 21]: +4
Migration Grade in the Cleared Area of the Well [2, 21]: +3
Migration Grade in an Undisturbed Region of the Well [2, 8]: +3
Migration Grade in the Cleared Area of the Well [2, 8]: +2
Migration Grade in an Undisturbed Region of the Well [2, 22]: +4/+4
Migration Grade in the Cleared Area of the Well [2, 22]: +4/+4
Migration Grade in an Undisturbed Region of the Well [2, 23]: +4/+4
Migration Grade in the Cleared Area of the Well [2, 23]: +4/+4
Migration Grade in an Undisturbed Region of the Well [2, 9]: +3
Migration Grade in the Cleared Area of the Well [2, 9]: +2
Migration Grade in an Undisturbed Region of the Well [2, 24]: +3
Migration Grade in the Cleared Area of the Well [2, 24]: +1
Migration Grade in an Undisturbed Region of the Well [2, 25]: +3
Migration Grade in the Cleared Area of the Well [2, 25]: +1
Migration Grade in an Undisturbed Region of the Well [2, 10]: +2
Migration Grade in an Undisturbed Region of the Well [2, 11]: +4
Migration Grade in an Undisturbed Region of the Well [2, 26]: +4
Migration Grade in the Cleared Area of the Well [2, 26]: +3
Migration Grade in an Undisturbed Region of the Well [2, 12]: +4
Migration Grade in the Cleared Area of the Well [2, 12]: +2
Migration Grade in an Undisturbed Region of the Well ([2]; Continuous Exposure, Day 6, 1.0 μg/mL): +2
Migration Grade in an Undisturbed Region of the Well [2, 27]: +4
Migration Grade in the Cleared Area of the Well [2, 27]: +3
Migration Grade in an Undisturbed Region of the Well [2, 13]: +4
Migration Grade in the Cleared Area of the Well [2, 13]: +2
Migration Grade in an Undisturbed Region of the Well ([2]; Continuous Exposure, Day 8, 1.0 μg/mL): +2
Migration Grade in an Undisturbed Region of the Well [2, 28]: +4
Migration Grade in the Cleared Area of the Well [2, 28]: +3
Migration Grade in an Undisturbed Region of the Well [2, 14]: +4
Migration Grade in the Cleared Area of the Well [2, 14]: +2
Migration Grade in an Undisturbed Region of the Well ([2]; Continuous Exposure, Day 10, 1.0 μg/mL): +2
MED, DNA assay ([3]; 5 minute exposure): 10 µg/mL
DNA synthesis inhibition compared with protein synthesis inhibition ([3]; 24 hour assays, 5% FBS, FIGS. 10A-10D): to a greater extent than they inhibited protein synthesis
MED, DNA synthesis assay ([3]; 24 hour exposure): 0.1 µg/mL
acute toxicity ([4]; 3.5 mg/kg intravenously): no acute toxicity
maximal recovery from tissue extracts ([4]; 3.5 mg/kg intravenously): 32%
tissue localization ([4]; 3.5 mg/kg intravenously): localized to the lung and the injection site
levels in tissues ([4]; 12 hours after administration): very low levels
intimal proliferation ([5]; Group 1, 2 weeks): minimal intimal and adventital proliferation
intimal proliferation ([5]; Group 1, three weeks): no intimal proliferation
intimal proliferation ([5]; Group 1: 20 mg in 1 g bovine collagen gel in collagen mesh wrap, 1 week): no intimal or adventital proliferation
intimal proliferation ([5]; Group 2, 3 weeks): moderate, irregular intimal proliferation
intimal proliferation ([5]; Group 2, two weeks): complete inhibition of intimal proliferation
intimal proliferation ([5]; Group 3, three weeks): moderate amount of intimal hyperplasia
intimal proliferation ([5]; Group 3, two weeks): mild, irregular intimal proliferation
intimal proliferation ([5]; Group 3: 8 mg in 100 mg pluronic gel on collagen mesh wrap, one week): mild intimal proliferation
intimal proliferation ([5]; Group 4, three weeks): minimal to no intimal proliferation
intimal proliferation ([5]; Group 4, two weeks): minimal intimal proliferation
intimal proliferation ([5]; Group 7a, three weeks): mild irregular intimal proliferation
intimal proliferation ([5]; Group 7a: 10% wt/wt, one week): no intimal proliferation
re-endothelization ([5]; Group 8a, animal 1254): approximately 60%
intimal proliferation ([5]; Group 8a, animal 1255): mild to moderate intimal proliferation
intimal proliferation ([5]; Group 8a, animal 1256): moderate intimal proliferation
intimal proliferation ([5]; Group 8a: 10% wrap 2 weeks, removed, 2 weeks later, animal 1254): none to mild
intimal proliferation ([5]; Group 10 (1% wrap, 2 weeks after removal), animal 1304): moderate initmal proliferation
re-endothelization ([5]; Group 10, animal 1304): 100%
intimal proliferation ([5]; Group 11 (1% wrap, four weeks after removal), animal 1307): moderate initmal proliferation
intimal proliferation ([5]; Group 11, animal 1308): moderate intimal proliferation
re-endothelization ([5]; Group 11, animal 1308): 100%
intimal proliferation ([5]; Group 11, animal 1309): marked intimal proliferation
qualitative difference between test and control animals ([5]; Groups 10 and 11: 1% wt/wt silicone wrap 2 weeks, removed, evaluated 2 or 4 weeks later): No significant difference

— patent US6663881B2 (priority 1993, dated 2003)
